Measurements published in ChEMBL document CHEMBL1201862, “PubChem BioAssay data set” (2004).
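1) Cells in 96-well plates. 2) Compound, 48 h, 5 concentrations. 3) Linear interpolation between surrounding doses. 4) Unreached endpoint = highest concentration. At the GI50, growth is halved.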 Calls of active or inactive are those of the source. Cut-off read from the data, not from the text of the source: active = GI50 up to about 1.1 µM and inactive = higher.

Tests used:
Assay in all cases: inhibition of tumour cell growth, NCI panel, 48 h
HCC 2998 = system: HCC 2998
UACC-257 = system: UACC-257
ACHN = system: ACHN
U-251 = system: U-251
HOP-92 = system: HOP-92
CCRF-CEM = system: CCRF-CEM
LOX IMVI = system: LOX IMVI
KM12 = system: KM12
HOP-62 = system: HOP-62
A549 = system: A549
MDA-N = system: MDA-N
NCI/ADR-RES = system: NCI/ADR-RES
NCI-H522 = system: NCI-H522
SNB-75 = system: SNB-75
MDA-MB-231 = system: MDA-MB-231
SF-539 = system: SF-539
NCI-H23 = system: NCI-H23
MDA-MB-435 = system: MDA-MB-435
A498 = system: A498
DU-145 = system: DU-145
SN12C = system: SN12C
SNB-19 = system: SNB-19
RXF 393 = system: RXF 393
CAKI-1 = system: CAKI-1
SR = system: SR
786-0 = system: 786-0
EKVX = system: EKVX
OVCAR-5 = system: OVCAR-5
TK-10 = system: TK-10
NCI-H226 = system: NCI-H226
UO-31 = system: UO-31
BT-549 = system: BT-549
HCT-15 = system: HCT-15
PC-3 = system: PC-3
T47D = system: T47D
IGROV-1 = system: IGROV-1
SK-MEL-28 = system: SK-MEL-28
HL-60 = system: HL-60
NCI-H460 = system: NCI-H460
OVCAR-4 = system: OVCAR-4
MCF7 = system: MCF7
SK-MEL-2 = system: SK-MEL-2
MOLT-4 = system: MOLT-4
SW-620 = system: SW-620
M14 = system: M14
UACC-62 = system: UACC-62
Malme-3M = system: Malme-3M
K562 = system: K562
HT-29 = system: HT-29
HCT-116 = system: HCT-116
OVCAR-8 = system: OVCAR-8
SF-268 = system: SF-268
COLO 205 = system: COLO 205
RPMI-8226 = system: RPMI-8226
SF-295 = system: SF-295
SK-MEL-5 = system: SK-MEL-5
OVCAR-3 = system: OVCAR-3
SK-OV-3 = system: SK-OV-3
Hs-578T = system: Hs-578T

Measured: GI50

CC(CC(C)[C@H]1CCC2[C@H]3C(CC[C@@]21C)[C@@]1(C)CCC(O)C[C@H]1C[C@@H]3O)C(=O)O (stereo not given in full)
inactive: HCC 2998 > 100 µM | UACC-257 > 100 µM | ACHN > 100 µM | U-251 > 100 µM | HOP-92 > 100 µM | CCRF-CEM > 100 µM | LOX IMVI > 100 µM | KM12 > 100 µM | HOP-62 > 100 µM | A549 > 100 µM | MDA-N > 100 µM | NCI/ADR-RES > 100 µM | NCI-H522 > 100 µM | SNB-75 > 100 µM | MDA-MB-231 > 100 µM | SF-539 > 100 µM | NCI-H23 > 100 µM | MDA-MB-435 > 100 µM | A498 > 100 µM | DU-145 > 100 µM | SN12C > 100 µM | SNB-19 > 100 µM | RXF 393 > 100 µM | CAKI-1 > 100 µM | SR > 100 µM | 786-0 > 100 µM | EKVX > 100 µM | OVCAR-5 > 100 µM | TK-10 > 100 µM | NCI-H226 > 100 µM | UO-31 66.2 µM | BT-549 > 100 µM | PC-3 > 100 µM | T47D > 100 µM | IGROV-1 > 100 µM | SK-MEL-28 > 100 µM | HL-60 > 100 µM | NCI-H460 > 100 µM | OVCAR-4 > 100 µM | MCF7 > 100 µM | SK-MEL-2 > 100 µM | MOLT-4 > 100 µM | SW-620 > 100 µM | M14 > 100 µM | UACC-62 > 100 µM | Malme-3M > 100 µM | K562 26.2 µM | HT-29 > 100 µM | HCT-116 > 100 µM | OVCAR-8 > 100 µM | SF-268 > 100 µM | COLO 205 > 100 µM | RPMI-8226 > 100 µM
> 100 µM: HCT-15

O=Nn1c2ccccc2c2ccccc21
inactive: SF-295 42.9 µM | HCC 2998 17.1 µM | UACC-257 61.2 µM | ACHN 56.2 µM | U-251 92.9 µM | HOP-92 66.2 µM | CCRF-CEM 45.7 µM | LOX IMVI 48.1 µM | KM12 34.3 µM | HOP-62 > 100 µM | A549 17.5 µM | NCI/ADR-RES 52.8 µM | NCI-H522 38.6 µM | SNB-75 75 µM | MDA-MB-231 65.2 µM | SF-539 > 100 µM | NCI-H23 58.2 µM | MDA-MB-435 77.4 µM | A498 23.8 µM | DU-145 > 100 µM | SN12C > 100 µM | SK-MEL-5 63.1 µM | SNB-19 88.9 µM | OVCAR-3 71.9 µM | RXF 393 37.7 µM | CAKI-1 44.4 µM | 786-0 95.1 µM | EKVX 22.4 µM | OVCAR-5 > 100 µM | TK-10 70.5 µM | NCI-H226 55.5 µM | UO-31 34.4 µM | BT-549 73.1 µM | PC-3 42.8 µM | T47D 66.5 µM | IGROV-1 85.3 µM | SK-MEL-28 > 100 µM | HL-60 59.3 µM | NCI-H460 9.86 µM | OVCAR-4 90.8 µM | MCF7 45 µM | SK-MEL-2 61.7 µM | MOLT-4 55.1 µM | SK-OV-3 84.5 µM | SW-620 66.8 µM | M14 74.1 µM | UACC-62 45.7 µM | Malme-3M 93.3 µM | Hs-578T 46.2 µM | K562 58.9 µM | HT-29 50.2 µM | HCT-116 85.9 µM | OVCAR-8 > 100 µM | SF-268 > 100 µM | COLO 205 14.1 µM | RPMI-8226 70.1 µM
35.1 µM: HCT-15

Nc1nc(Cl)c(/C=N\O)c(NCC2(CO)CC(=O)C2)n1
inactive: SF-295 56 µM | HCC 2998 > 100 µM | UACC-257 58.3 µM | ACHN 62.1 µM | U-251 > 100 µM | HOP-92 40.8 µM | CCRF-CEM 41.7 µM | LOX IMVI 45.8 µM | KM12 24.5 µM | HOP-62 76.9 µM | A549 30.8 µM | MDA-N 96.4 µM | NCI/ADR-RES > 100 µM | NCI-H522 68.7 µM | SNB-75 31.1 µM | MDA-MB-231 80.7 µM | SF-539 78.2 µM | NCI-H23 36.4 µM | MDA-MB-435 95.1 µM | A498 34.4 µM | DU-145 77.4 µM | SN12C > 100 µM | SK-MEL-5 76.7 µM | SNB-19 > 100 µM | OVCAR-3 60.1 µM | RXF 393 39.4 µM | CAKI-1 75.3 µM | SR 3.85 µM | 786-0 49.1 µM | EKVX > 100 µM | OVCAR-5 85.3 µM | TK-10 > 100 µM | NCI-H226 > 100 µM | UO-31 47.4 µM | BT-549 51.5 µM | PC-3 80.2 µM | IGROV-1 23.2 µM | SK-MEL-28 > 100 µM | HL-60 5.33 µM | NCI-H460 67.3 µM | OVCAR-4 84.3 µM | MCF7 52.5 µM | MOLT-4 31.8 µM | SW-620 89.1 µM | Malme-3M 33.7 µM | Hs-578T 18.7 µM | K562 54.2 µM | HT-29 80 µM | HCT-116 88.7 µM | OVCAR-8 > 100 µM | SF-268 > 100 µM | COLO 205 > 100 µM | RPMI-8226 3.33 µM
> 100 µM: HCT-15
